Reference: patent publication US20260206761A1, “HETEROARYL-TRIAZOLE COMPOUNDS AS PESTICIDES” (Bayer Aktiengesellschaft, priority 2019, published 2026)

Tests used:
Format in all cases: in vivo
[1] = tested on: adult engorged female ticks (Rhipicephalus microplus); assay: Rhipicephalus (Boophilus) microplus injection test; conditions: 168 h, egg deposition after 7 days, read-out: activity (efficacy: infertile eggs); for pest or weed control at 0.02 mg: application rate 20 μg/animal; for pest or weed control at 4 pg: application rate 4 pg/animal
Procedure: Rhipicephalus (Boophilus) microplus—Injection Test
Solvent: dimethyl sulfoxide
To produce a suitable preparation of active compound, 10 mg of active compound are dissolved in 0.5 mL solvent, and the concentrate is diluted with solvent to the desired concentration.
Five adult engorged female ticks (Rhipicephalus microplus) are injected with 1 μL compound solution into the abdomen. The ticks are transferred into replica plates and incubated in a climate chamber.
After 7 days egg deposition of fertile eggs is monitored. Eggs where fertility is not visible are stored in a climate chamber till hatching after about 42 days. An efficacy of 100% means all eggs are infertile; 0% means all eggs are fertile.

[2] = tested on: larvae of the banded cucumber beetle (Diabrotica balteata); assay: Diabrotica balteata spray test; conditions: 168 h, after 7 days, read-out: activity (efficacy: seedlings grown); for pest or weed control at 500 g/ha: application rate 500 g/ha (=160 pg/well); for pest or weed control at 100 g/ha: application rate 100 g/ha (=32 pg/well)
Procedure: Diabrotica balteata—spray test
(§1) Solvent: 78.0 parts by weight of acetone • • 1.5 parts by weight of dimethylformamide
(§2) Emulsifier: alkylarylpolyglycol ether
(§3) To produce a suitable preparation of active compound, 1 part by weight of active compound is mixed with the stated amount of solvent, and the concentrate is diluted with water, containing an emulsifier concentration of 1000 ppm, to the desired concentration. Further test concentrations are prepared by dilution with emulsifier containing water.
Soaked wheat seeds (Triticum aestivum) are placed in a multiple well plate filled with agar and some water and are incubated for 1 day to germinate (5 seeds per well). The germinated wheat seeds are sprayed with a test solution containing the desired concentration of the active ingredient. Afterwards each unit is infected with 10-20 larvae of the banded cucumber beetle (Diabrotica balteata).
After 7 days efficacy in % is determined. 100% means all the seedlings have grown up like in the untreated, uninfected control; 0% means none of the seedlings have grown.

[3] = tested on: Rhipicephalus microplus larvae (strain Parkhurst, resistant against synthetic pyrethroids); assay: Rhipicephalus (Boophilus) microplus in-vitro contact test, larval cattle tick; conditions: after 48 hours, read-out: activity (efficacy: larvae dead or moribund); for pest or weed control at 100 g/ha: application rate 1 pg/cm^2 (=100 g/ha); for pest or weed control at 500 g/ha: application rate 5 pg/cm^2 (=500 g/ha)
Procedure: Rhipicephalus (Boophilus) microplus—In-Vitro Contact Tests Larval Cattle Tick (Strain Parkhurst. Resistant Against Synthetic Pyrethroids)
(§4) 9 mg compound is solved in 1 mL acetone and diluted with acetone to the desired concentration. 250 μL of the test solution is filled in 25 mL glass test tubes and homogeneously distributed on the inner walls by rotation and tilting on a shaking device (2 h at 30 rpm). With a compound concentration of 900 ppm, an inner surface of 44.7 cm^2 and a homogeneous distribution, a dose of 5 μg/cm^2 is achieved.
After the solvent has evaporated, each test tube is filled with 20-50 cattle tick larvae (Rhipicephalus microplus), closed with a perforated lid and incubated in a horizontal position at 85% relative humidity and 27° C. in an incubator. After 48 hours efficacy is determined. The larvae are patted on the ground of the tubes and negative geotactic behaviour is recorded.
An efficacy of 100% means all larvae are dead or moribund; 0% means no larvae are dead or moribund.

[4] = tested on: fall armyworm larvae (Spodoptera frugiperda); assay: Spodoptera frugiperda spray test; conditions: 168 h, read-out: activity (mortality)
Procedure: Spodoptera frugiperda—Spray Test
Solvent: 78.0 parts by weight acetone • 1.5 parts by weight dimethylformamide
as §2
To produce a suitable preparation of active compound, 1 part by weight of active compound is mixed with the stated amount of solvents and is diluted with water, containing an emulsifier concentration of 1000 ppm, to the desired concentration. Further test concentrations are prepared by dilution with emulsifier containing water.
Maize (Zea mays) leaf sections are sprayed with a preparation of the active ingredient of the desired concentration. Once dry, the leaf sections are infested with fall armyworm larvae (Spodoptera frugiperda).
After 7 days mortality in % is determined. 100% means all caterpillars have been killed and 0% means none of the caterpillars have been killed.

[5] = tested on: adult brown dog ticks (Rhipicephalus sanguineus); assay: Rhipicephalus sanguineus in-vitro contact test, adult brown dog ticks; conditions: after 48 hours, read-out: activity (efficacy: ticks dead or moribund); for pest or weed control at 100 g/ha: application rate 1 pg/cm^2 (=100 g/ha); for pest or weed control at 5 µg/cm2, 500 g/ha: application rate 5 μg/cm^2 (=500 g/ha)
Procedure: Rhipicephalus sanguineus—In-Vitro Contact Tests with Adult Brown Dog Ticks
as §4
After the solvent has evaporated, each test tube is filled with 5-10 adult brown dog ticks (Rhipicephalus sanguineus), closed with a perforated lid and incubated in a lying position at room temperature and relative humidity. After 48 hours efficacy is determined. The ticks are patted on the ground of the tubes and are incubated on a heating plate at 45-50° C. for at most 5 minutes. Immotile or uncoordinated moving ticks, which are not able to escape the heat by climbing upwards, are marked as dead or moribund.
An efficacy of 100% means all ticks are dead or moribund; 0% means no ticks are dead or moribund.

[6] = tested on: green peach aphid (Myzus persicae); assay: Myzus persicae oral test; conditions: 120 h, application rate 4 ppm, after 5 days
Procedure: Solvent: 100 parts by weight acetone
To produce a suitable preparation of active compound, 1 part by weight of active compound is mixed with the stated amount of solvent, and the concentrate is diluted with water to the desired concentration.
50 μL compound solution is filled in microtiter plates and 150 μL IPL41 insect medium (33%+15% sugar) is added to obtain a total volume of 200 μL per well. Afterwards the plates are sealed with parafilm through which a mixed population of the green peach aphid (Myzus persicae) can suck on the compound preparation.
After 5 days mortality in % is determined. 100% means all aphids have been killed and 0% means none of the aphids have been killed.

[7] = tested on: larvae of the southern green stink bug (Nezara viridula); assay: Nezara viridula spray test; conditions: 96 h, after 4 days; for mortality at 500 g/ha: application rate 500 g/ha
Procedure: Nezara viridula—Spray Test
as §1, §2, §3
Barley plants (Hordeum vulgare) infested with larvae of the southern green stink bug (Nezara viridula) are sprayed with a test solution containing the desired concentration of the active ingredient.
After 4 days mortality in % is determined. 100% means all the stink bugs have been killed; 0% means none of the stink bugs have been killed.

SMILES	pest or weed control at 100 g/ha [3]	pest or weed control at 500 g/ha [3]	mortality at 100 g/ha [4]	pest or weed control at 100 g/ha [2]	mortality at 500 g/ha [7]	also measured
CCOc1nc([C@H](C)NC(=O)c2csc(Cl)c2)n(-c2ccc(C#N)cn2)n1 [I-10]						pest or weed control at 0.02 mg [1]: 80%; pest or weed control at 500 g/ha [2]: 100%
CC(C)Oc1nc([C@H](C)NC(=O)c2cc(Cl)cc(S(C)(=O)=O)c2)n(-c2ccc(C#N)cn2)n1 [I-11]	90%	80%	100%			pest or weed control at 4 pg [1]: 100%; pest or weed control at 0.02 mg [1]: 100%; pest or weed control at 500 g/ha [2]: 80%; mortality at 500 g/ha [4]: 83%
CC(C)Oc1nc([C@H](C)NC(=O)c2csc(Cl)c2)n(-c2ccc(C#N)cn2)n1 [I-12]						pest or weed control at 0.02 mg [1]: 80%
CC(C)S(=O)(=O)c1cc(Cl)cc(C(=O)N[C@@H](C)c2nc(C3CC3)nn2-c2ccc(C#N)cn2)c1 [I-14]	100%	100%				pest or weed control at 100 g/ha [5]: 80%; pest or weed control at 5 µg/cm2, 500 g/ha [5]: 80%; pest or weed control at 4 pg [1]: 100%; pest or weed control at 0.02 mg [1]: 100%
C[C@H](NC(=O)c1cc(OC(F)(F)F)cc(C2CC2)c1)c1nc(C2CC2)nn1-c1ccc(C#N)cn1 [I-37]	100%	100%		100%		pest or weed control at 4 pg [1]: 100%
C[C@H](NC(=O)c1cc(Cl)cc(S(=O)(=O)C(F)(F)F)c1)c1nc(C2CC2)nn1-c1ccc(C#N)cn1 [I-40]	100%	100%	100%	100%		pest or weed control at 4 pg [1]: 100%
CC(NC(=O)c1cc(C(F)(F)F)n(C)n1)c1nc(I)nn1-c1ncccn1 (centres unmarked) [I-42]	100%	100%		100%		
COc1nc([C@H](C)NC(=O)c2cc(OC(F)(F)F)cc(C3CC3)c2)n(-c2ccc(Cl)cn2)n1 [I-46]				100%		
C[C@H](NC(=O)c1cc(C2CC2)cc(S(C)(=O)=O)c1)c1nc(C2CC2)nn1-c1ccc(C#N)cn1 [I-49]	100%	100%	100%			mortality at 4 ppm [6]: 100%
CC(NC(=O)c1cc(Br)cc(C2(C(F)(F)F)CC2)c1)c1nc(Cl)nn1-c1ccc(C#N)cn1 (centres unmarked) [I-50]	80%	90%				
C[C@H](NC(=O)c1cc(C(F)F)cc(S(C)(=O)=O)c1)c1nc(C2CC2)nn1-c1ccc(Cl)cn1 [I-57]	100%	100%	100%	100%	90%	pest or weed control at 100 g/ha [5]: 100%; pest or weed control at 5 µg/cm2, 500 g/ha [5]: 80%; mortality at 100 g/ha ([7]; application rate 100 g/ha): 100%
COc1nc([C@H](C)NC(=O)c2cc(Br)cc(C3CC3(F)F)c2)n(-c2ccc(C#N)cn2)n1 (some centres unmarked) [I-72]	100%	90%	100%		90%	
COc1nc([C@H](C)NC(=O)c2cc(F)cc(S(C)(=O)=O)c2)n(-c2ccc(C#N)cn2)n1 [I-73]			100%	100%		
COc1nc([C@H](C)NC(=O)c2cc(Cl)cc(S(C)(=O)=O)c2)n(-c2ncc(Cl)cn2)n1 [I-78]			100%	100%		
CC(NC(=O)c1cc(OC(F)(F)F)cc(C2CC2)c1)c1nc(Cl)nn1-c1ccc(C#N)cn1 (centres unmarked) [I-85]	90%	90%		100%		
C[C@H](NC(=O)c1cc(OC(F)F)cc(S(=O)(=O)C2CC2)c1)c1nc(C2CC2)nn1-c1ccc(C#N)cn1 [I-86]			100%	100%	100%	
COc1nc([C@H](C)NC(=O)c2cc(Cl)cc(S(=O)(=O)C3CC3)c2)n(-c2ccc(C#N)cn2)n1 [I-87]			100%		100%	
COc1nc([C@H](C)NC(=O)c2cc(C(F)F)cc(S(C)(=O)=O)c2)n(-c2ccc(C#N)cn2)n1 [I-89]			100%		100%	
C[C@H](NC(=O)c1cc(OC(F)(F)F)cc(S(=O)(=O)C2CC2)c1)c1nc(C2CC2)nn1-c1ccc(C#N)cn1 [I-90]			100%	100%	100%	
COc1nc([C@H](C)NC(=O)c2cc(OC(F)(F)F)cc(S(=O)(=O)C3CC3)c2)n(-c2ccc(C#N)cn2)n1 [I-92]			100%		90%	
C[C@H](NC(=O)c1cc(Br)cc(C(C)(C)C)c1)c1nncn1-c1ccc(C#N)cn1 [II-2]						pest or weed control at 4 pg [1]: 100%; pest or weed control at 0.02 mg [1]: 100%; pest or weed control at 500 g/ha [2]: 100%; mortality at 500 g/ha [4]: 100%
Cc1nc([C@H](C)NC(=O)c2sccc2C(F)(F)F)n(-c2ccc(C#N)cn2)n1 [II-10]		90%				
